Drawing on ChEMBL document CHEMBL3991601, “The target landscape of clinical kinase drugs” (Science, 2017), this text covers Kd for 13 compounds.

For test [1], the target named is Cyclin-dependent kinase 4 (Homo sapiens, UniProt P11802).
Test [2] addresses Casein kinase I isoform alpha (Homo sapiens, UniProt P48729).
In test [3] the target is T1, Ephrin type-B receptor 4 (Homo sapiens, UniProt P54760).
T1 sequence (P54760 whole entry): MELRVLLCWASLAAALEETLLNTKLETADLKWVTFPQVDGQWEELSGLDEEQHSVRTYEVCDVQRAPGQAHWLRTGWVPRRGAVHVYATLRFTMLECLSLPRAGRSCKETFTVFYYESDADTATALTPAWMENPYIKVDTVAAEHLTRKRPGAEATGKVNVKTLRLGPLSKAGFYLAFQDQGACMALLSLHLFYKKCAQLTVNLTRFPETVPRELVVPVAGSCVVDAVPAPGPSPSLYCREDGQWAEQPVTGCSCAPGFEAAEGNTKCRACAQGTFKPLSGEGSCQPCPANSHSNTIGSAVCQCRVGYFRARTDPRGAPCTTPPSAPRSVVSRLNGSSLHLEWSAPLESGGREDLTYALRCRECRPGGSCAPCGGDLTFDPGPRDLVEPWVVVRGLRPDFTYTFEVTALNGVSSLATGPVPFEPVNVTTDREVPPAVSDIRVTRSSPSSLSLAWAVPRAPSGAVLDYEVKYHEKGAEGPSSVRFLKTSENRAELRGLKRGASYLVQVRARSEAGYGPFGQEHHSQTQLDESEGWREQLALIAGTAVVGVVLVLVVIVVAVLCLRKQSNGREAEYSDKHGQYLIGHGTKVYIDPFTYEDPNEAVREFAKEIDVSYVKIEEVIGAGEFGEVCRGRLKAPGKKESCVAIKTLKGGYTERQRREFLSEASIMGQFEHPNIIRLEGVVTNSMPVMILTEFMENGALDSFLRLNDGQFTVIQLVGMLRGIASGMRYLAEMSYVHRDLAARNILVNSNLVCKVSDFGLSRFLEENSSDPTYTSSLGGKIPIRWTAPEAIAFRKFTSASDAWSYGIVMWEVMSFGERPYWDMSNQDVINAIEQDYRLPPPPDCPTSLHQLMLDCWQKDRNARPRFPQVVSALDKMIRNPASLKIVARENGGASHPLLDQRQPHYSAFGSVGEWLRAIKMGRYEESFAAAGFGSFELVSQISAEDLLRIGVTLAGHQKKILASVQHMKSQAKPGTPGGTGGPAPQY

Test [4] has as its target T2, Heme oxygenase 2 (Homo sapiens, UniProt P30519).
T2 sequence (P30519 whole entry): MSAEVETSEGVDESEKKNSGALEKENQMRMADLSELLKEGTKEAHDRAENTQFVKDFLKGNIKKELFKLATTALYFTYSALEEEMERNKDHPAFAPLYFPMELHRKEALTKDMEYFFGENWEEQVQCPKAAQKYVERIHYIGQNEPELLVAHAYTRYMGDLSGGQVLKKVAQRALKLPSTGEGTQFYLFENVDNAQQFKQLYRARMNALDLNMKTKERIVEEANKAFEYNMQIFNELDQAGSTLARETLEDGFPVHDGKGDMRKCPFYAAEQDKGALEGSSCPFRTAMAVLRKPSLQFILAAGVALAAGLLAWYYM

The target in test [5] is T3, MAP/microtubule affinity-regulating kinase 4 (Homo sapiens, UniProt Q96L34).
T3 sequence (Q96L34 whole entry): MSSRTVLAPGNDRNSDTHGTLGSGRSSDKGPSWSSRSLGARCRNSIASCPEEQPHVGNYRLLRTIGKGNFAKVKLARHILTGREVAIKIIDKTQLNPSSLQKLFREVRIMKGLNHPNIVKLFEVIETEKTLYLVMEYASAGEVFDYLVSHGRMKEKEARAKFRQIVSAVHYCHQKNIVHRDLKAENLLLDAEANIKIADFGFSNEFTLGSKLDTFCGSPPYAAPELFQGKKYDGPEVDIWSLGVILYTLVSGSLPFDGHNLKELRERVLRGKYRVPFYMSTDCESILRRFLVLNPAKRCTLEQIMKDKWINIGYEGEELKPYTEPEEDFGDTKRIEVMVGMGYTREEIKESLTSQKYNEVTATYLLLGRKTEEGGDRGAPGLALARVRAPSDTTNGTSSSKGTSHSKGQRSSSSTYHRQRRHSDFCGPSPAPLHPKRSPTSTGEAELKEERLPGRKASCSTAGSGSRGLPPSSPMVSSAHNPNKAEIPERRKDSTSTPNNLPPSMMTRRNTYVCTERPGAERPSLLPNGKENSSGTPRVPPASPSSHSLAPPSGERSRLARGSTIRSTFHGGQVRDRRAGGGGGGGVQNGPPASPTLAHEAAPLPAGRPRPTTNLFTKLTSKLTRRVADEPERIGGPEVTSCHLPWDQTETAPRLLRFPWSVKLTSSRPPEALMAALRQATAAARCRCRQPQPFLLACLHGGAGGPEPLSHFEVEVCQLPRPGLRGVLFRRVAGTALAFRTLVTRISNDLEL

Test [6] concerns the target Myosin-14 (Homo sapiens, UniProt Q7Z406).
Test [7] deals with T4, Pyridoxal kinase (Homo sapiens, UniProt O00764).
T4 sequence (O00764 whole entry): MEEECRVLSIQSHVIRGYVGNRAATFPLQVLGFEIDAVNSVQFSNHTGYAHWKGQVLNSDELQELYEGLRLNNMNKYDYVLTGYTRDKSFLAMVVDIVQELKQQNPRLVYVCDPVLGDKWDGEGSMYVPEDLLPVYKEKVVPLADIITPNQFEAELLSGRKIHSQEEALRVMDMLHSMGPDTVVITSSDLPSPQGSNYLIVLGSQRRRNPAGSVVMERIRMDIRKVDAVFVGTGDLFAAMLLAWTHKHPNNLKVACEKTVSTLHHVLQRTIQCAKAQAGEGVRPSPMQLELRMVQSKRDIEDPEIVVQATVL

The target of test [8] is T5, Serine/threonine-protein kinase STK11 (Homo sapiens, UniProt Q15831).
T5 sequence (Q15831 whole entry): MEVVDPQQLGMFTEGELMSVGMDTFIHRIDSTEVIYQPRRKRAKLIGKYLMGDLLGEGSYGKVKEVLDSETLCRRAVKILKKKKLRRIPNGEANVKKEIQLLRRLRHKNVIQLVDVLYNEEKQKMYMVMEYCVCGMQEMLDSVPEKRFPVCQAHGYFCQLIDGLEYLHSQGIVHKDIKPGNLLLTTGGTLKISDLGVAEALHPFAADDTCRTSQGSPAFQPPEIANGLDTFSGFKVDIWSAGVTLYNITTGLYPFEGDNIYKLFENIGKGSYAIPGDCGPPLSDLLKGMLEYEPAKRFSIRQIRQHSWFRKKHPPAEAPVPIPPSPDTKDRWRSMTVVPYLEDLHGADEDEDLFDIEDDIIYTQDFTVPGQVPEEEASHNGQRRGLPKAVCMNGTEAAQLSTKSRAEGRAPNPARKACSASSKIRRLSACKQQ

SMILES strings stand for the structures. The source made the active and inactive calls.
Note: in the data inactive means no Kd found up to 30 µM.

Chain of Casein kinase I isoform alpha (P48729 whole entry, canonical isoform): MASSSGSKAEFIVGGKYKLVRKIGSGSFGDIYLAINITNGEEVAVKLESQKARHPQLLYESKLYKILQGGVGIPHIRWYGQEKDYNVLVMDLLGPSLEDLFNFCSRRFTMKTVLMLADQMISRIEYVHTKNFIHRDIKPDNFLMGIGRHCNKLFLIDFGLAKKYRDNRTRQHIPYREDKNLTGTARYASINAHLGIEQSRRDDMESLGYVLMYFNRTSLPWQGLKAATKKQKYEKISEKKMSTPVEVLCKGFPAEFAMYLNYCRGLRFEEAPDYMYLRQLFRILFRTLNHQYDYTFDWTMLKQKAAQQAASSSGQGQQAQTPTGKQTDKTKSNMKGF
Chain of Cyclin-dependent kinase 4 (P11802 whole entry, canonical isoform): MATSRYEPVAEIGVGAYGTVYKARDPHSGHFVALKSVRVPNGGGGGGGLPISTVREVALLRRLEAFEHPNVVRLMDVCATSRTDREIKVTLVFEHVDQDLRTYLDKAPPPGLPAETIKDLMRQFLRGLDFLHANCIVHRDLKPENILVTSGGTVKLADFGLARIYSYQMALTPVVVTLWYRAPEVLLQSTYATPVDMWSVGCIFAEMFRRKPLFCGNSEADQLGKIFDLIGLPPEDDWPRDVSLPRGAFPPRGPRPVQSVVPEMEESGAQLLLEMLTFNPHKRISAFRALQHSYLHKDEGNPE
Chain of Myosin-14 (Q7Z406 whole entry): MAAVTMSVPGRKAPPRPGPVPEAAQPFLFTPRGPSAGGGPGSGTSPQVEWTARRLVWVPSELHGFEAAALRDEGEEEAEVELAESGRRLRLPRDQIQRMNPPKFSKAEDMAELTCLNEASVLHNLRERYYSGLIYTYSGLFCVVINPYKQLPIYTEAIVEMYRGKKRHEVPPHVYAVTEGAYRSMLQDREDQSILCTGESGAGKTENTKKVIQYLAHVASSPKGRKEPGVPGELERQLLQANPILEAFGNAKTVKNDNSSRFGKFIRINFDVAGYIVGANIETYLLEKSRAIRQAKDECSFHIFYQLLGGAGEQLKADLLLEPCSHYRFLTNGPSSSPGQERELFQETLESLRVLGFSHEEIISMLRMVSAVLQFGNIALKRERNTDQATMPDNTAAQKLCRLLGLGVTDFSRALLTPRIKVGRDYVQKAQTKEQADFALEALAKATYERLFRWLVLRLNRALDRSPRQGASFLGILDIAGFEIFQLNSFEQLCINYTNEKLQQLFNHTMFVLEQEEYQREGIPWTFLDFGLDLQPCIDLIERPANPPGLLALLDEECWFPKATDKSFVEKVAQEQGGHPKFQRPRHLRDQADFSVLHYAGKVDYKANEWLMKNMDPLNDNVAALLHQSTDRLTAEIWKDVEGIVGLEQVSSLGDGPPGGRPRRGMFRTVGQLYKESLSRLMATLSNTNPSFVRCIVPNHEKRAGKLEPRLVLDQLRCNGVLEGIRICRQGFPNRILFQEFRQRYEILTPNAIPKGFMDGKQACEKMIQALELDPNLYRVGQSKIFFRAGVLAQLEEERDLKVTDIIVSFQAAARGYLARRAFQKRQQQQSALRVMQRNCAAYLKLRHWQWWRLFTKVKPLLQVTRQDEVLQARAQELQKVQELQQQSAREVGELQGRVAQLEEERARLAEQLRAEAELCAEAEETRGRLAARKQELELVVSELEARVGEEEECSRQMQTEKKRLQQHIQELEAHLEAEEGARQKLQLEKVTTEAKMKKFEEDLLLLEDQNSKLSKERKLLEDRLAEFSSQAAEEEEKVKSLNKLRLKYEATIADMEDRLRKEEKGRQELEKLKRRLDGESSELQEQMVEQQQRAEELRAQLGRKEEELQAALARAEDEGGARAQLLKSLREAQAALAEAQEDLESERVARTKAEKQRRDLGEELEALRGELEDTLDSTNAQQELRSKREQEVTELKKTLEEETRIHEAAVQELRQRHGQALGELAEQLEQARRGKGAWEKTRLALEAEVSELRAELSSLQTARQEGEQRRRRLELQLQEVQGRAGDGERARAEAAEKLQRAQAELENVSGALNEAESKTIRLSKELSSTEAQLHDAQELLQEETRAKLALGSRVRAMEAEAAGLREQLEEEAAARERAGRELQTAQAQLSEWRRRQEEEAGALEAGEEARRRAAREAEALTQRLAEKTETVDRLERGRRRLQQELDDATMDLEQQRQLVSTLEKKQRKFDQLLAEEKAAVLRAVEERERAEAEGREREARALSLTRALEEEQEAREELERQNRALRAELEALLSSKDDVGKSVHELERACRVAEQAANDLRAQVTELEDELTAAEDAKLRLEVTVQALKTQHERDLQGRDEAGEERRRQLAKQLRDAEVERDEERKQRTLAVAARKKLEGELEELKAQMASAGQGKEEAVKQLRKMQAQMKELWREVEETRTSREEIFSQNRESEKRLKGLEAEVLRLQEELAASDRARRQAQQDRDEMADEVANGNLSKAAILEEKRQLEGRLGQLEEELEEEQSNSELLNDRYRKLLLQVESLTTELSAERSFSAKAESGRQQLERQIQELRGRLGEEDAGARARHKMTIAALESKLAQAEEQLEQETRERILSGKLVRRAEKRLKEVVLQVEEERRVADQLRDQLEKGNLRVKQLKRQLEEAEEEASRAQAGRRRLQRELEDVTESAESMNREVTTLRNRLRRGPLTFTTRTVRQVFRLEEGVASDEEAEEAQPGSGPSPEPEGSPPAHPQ

The Kd is the concentration at which binding is half-saturated. For `COc1cc2nccc(Oc3ccc(NC(=O)NC4CC4)c(Cl)c3)c2cc1C(N)=O` [LENVATINIB], the Kd in test [1], in test [2], in test [3], in test [4], in test [5] and in test [6] was > 30 µM (inactive) throughout. In addition, the Kd in test [7] and in test [8] was > 30 µM (inactive) throughout.

Turning to `CO[C@H]1C[C@@H]2CC[C@@H](C)[C@@](O)(O2)C(=O)C(=O)N2CCCC[C@H]2C(=O)O[C@H]([C@H](C)C[C@@H]2CC[C@@H](OCCO)[C@H](OC)C2)CC(=O)[C@H](C)/C=C(\C)[C@@H](O)[C@@H](OC)C(=O)[C@H](C)C[C@H](C)/C=C/C=C/C=C/1C` [EVEROLIMUS], the Kd in test [1], in test [2], in test [3], in test [4], in test [5] and in test [6] was > 30 µM (inactive) each time. Moreover, the Kd in test [7] and in test [8] was > 30 µM (inactive) throughout.

Consider `Cc1ccc(NC(=O)c2ccc(CN3CC[C@H](N(C)C)C3)c(C(F)(F)F)c2)cc1Nc1nccc(-c2cncnc2)n1` [BAFETINIB], for which the Kd in test [1] was > 30 µM (inactive); in test [3], 1.3 µM (active); in test [4] it was > 30 µM (inactive); in test [5], > 30 µM (inactive); in test [6] it was > 30 µM (inactive); in test [7], > 30 µM (inactive). Moreover, the Kd in test [8] is > 30 µM (inactive).

For `CC(C)Nc1cc(-c2c[nH]c(C(=O)N[C@H](CO)c3cccc(Cl)c3)c2)c(Cl)cn1` [ULIXERTINIB], the Kd in test [1], in test [2], in test [3], in test [4], in test [6] and in test [7] was > 30 µM (inactive) in each case. Moreover, in test [8], the Kd is > 30 µM (inactive).

As to `O=C(Nc1cccc(Cl)c1)Nc1ncc(CCNc2ncnc3ccsc23)s1` [SNS-314], the Kd in test [1], in test [3], in test [4], in test [5], in test [6] and in test [7] was > 30 µM (inactive) each time. In test [8], the Kd was > 30 µM (inactive).

Take `O=C1NC(=O)/C(=C/c2ccc3nccc(-c4ccncc4)c3c2)S1` [GSK-1059615]: the Kd in test [1], in test [2], in test [3], in test [4], in test [5] and in test [6] was > 30 µM (inactive) throughout. The Kd in test [7] and in test [8] was > 30 µM (inactive) each time.

Regarding `CCS(=O)(=O)N1CC(CC#N)(n2cc(-c3ncnc4[nH]ccc34)cn2)C1` [BARICITINIB], the Kd in test [1], in test [2], in test [3], in test [4], in test [6] and in test [7] was > 30 µM (inactive) in each case. Further, the Kd in test [8] was > 30 µM (inactive).

Consider `C[C@@H](c1ccc2nccn2c1)n1nnc2ncc(-c3cnn(C)c3)nc21` [SAVOLITINIB], for which the Kd in test [1], in test [2], in test [3], in test [4], in test [6] and in test [7] was > 30 µM (inactive) throughout.

Consider `COc1cc2nccc(Oc3ccc(NC(=O)Nc4cc(C)on4)c(Cl)c3)c2cc1OC` [TIVOZANIB], for which the Kd in test [1], in test [2], in test [4], in test [5], in test [6] and in test [7] was > 30 µM (inactive) throughout. For the same compound, in test [8], the Kd is > 30 µM (inactive).

With `N[C@@H]1CCCN(c2c(/C=C3\SC(=O)NC3=O)cccc2-c2ccccc2)C1`, the Kd in test [1], in test [2], in test [3], in test [4], in test [6] and in test [7] was > 30 µM (inactive) throughout. In addition, the Kd in test [8] is > 30 µM (inactive).

As to `OCCn1cc(-c2cnc3nnn(Cc4ccc5ncccc5c4)c3n2)cn1` [PF-04217903], the Kd in test [1], in test [3], in test [4], in test [5], in test [6] and in test [7] was > 30 µM (inactive) each time. The Kd in test [8] was > 30 µM (inactive).

`CCn1c(=O)c(-c2cc[nH]n2)cc2c(C)nc(N)nc21` [VOXTALISIB]: the Kd in test [1], in test [2], in test [3], in test [4], in test [5] and in test [6] was > 30 µM (inactive) throughout. The Kd in test [7] was > 30 µM (inactive).

As to `Cc1cc([C@@H](C)Nc2ccccc2C(=O)O)c2nc(N3CCOCC3)cc(=O)n2c1` [AZD-6482], the Kd in test [2], in test [3], in test [4], in test [5], in test [6] and in test [7] was > 30 µM (inactive) each time. Further, in test [8], the Kd is > 30 µM (inactive).
